# From ChEMBL document CHEMBL1154470, “Synthesis and antimicrobial activities of a new series of 4-S-[4(1)-amino-5(1)-oxo-6(1)-substituted benzyl-4(1),5(1)-dihydro-1(1),2(1),4(1)-triazin-3-yl]mercaptoacetyl-3-arylsydnones” (2008)
# Tests used:
# Type in all cases: functional
# Candida albicans = assay: Antifungal activity against Candida albicans NCIM No. 3100 by serial dilution method
# Bacillus subtilis = assay: Antibacterial activity against Bacillus subtilis by serial dilution method
# Escherichia coli = assay: Antibacterial activity against Escherichia coli ATCC 25922 by serial dilution method
# Staphylococcus aureus = assay: Antibacterial activity against Staphylococcus aureus ATCC 25923 by serial dilution method
# Pseudomonas aeruginosa = assay: Antibacterial activity against Pseudomonas aeruginosa ATCC 27853 by serial dilution method
compound,measurement,setting,value
OC(Cn1cncn1)(Cn1cncn1)c1ccc(F)cc1F [FLUCONAZOLE],MIC,Candida albicans,0.25 µg/mL
COc1ccc(-[n+]2noc([O-])c2C(=O)CSc2nnc(Cc3ccc(Cl)cc3)c(=O)n2N)cc1,MIC,Bacillus subtilis,0.25 µg/mL
same,MIC,Escherichia coli,0.25 µg/mL
same,MIC,Staphylococcus aureus,0.25 µg/mL
same,MIC,Pseudomonas aeruginosa,0.25 µg/mL
same,MIC,Candida albicans,0.25 µg/mL
COc1ccc(-[n+]2noc([O-])c2C(=O)CSc2nnc(Cc3ccc(Br)cc3)c(=O)n2N)cc1,MIC,Bacillus subtilis,0.25 µg/mL
same,MIC,Escherichia coli,0.25 µg/mL
same,MIC,Staphylococcus aureus,0.25 µg/mL
same,MIC,Pseudomonas aeruginosa,0.25 µg/mL
same,MIC,Candida albicans,0.25 µg/mL
Nn1c(SCC(=O)c2c([O-])on[n+]2-c2ccccc2)nnc(Cc2ccc3c(c2)OCO3)c1=O,MIC,Bacillus subtilis,0.25 µg/mL
same,MIC,Escherichia coli,0.25 µg/mL
same,MIC,Staphylococcus aureus,0.25 µg/mL
same,MIC,Pseudomonas aeruginosa,0.25 µg/mL
same,MIC,Candida albicans,0.25 µg/mL
Cc1ccc(-[n+]2noc([O-])c2C(=O)CSc2nnc(Cc3ccc4c(c3)OCO4)c(=O)n2N)cc1,MIC,Bacillus subtilis,0.25 µg/mL
same,MIC,Escherichia coli,0.25 µg/mL
same,MIC,Staphylococcus aureus,0.25 µg/mL
same,MIC,Pseudomonas aeruginosa,0.25 µg/mL
same,MIC,Candida albicans,0.25 µg/mL
NC(=O)N/N=C/c1ccc([N+](=O)[O-])o1 [NITROFURAZONE],MIC,Bacillus subtilis,0.5 µg/mL
same,MIC,Escherichia coli,0.25 µg/mL
same,MIC,Staphylococcus aureus,0.5 µg/mL
same,MIC,Pseudomonas aeruginosa,0.5 µg/mL
Cc1ccc(-[n+]2noc([O-])c2C(=O)CSc2nnc(Cc3ccc(Br)cc3)c(=O)n2N)cc1,MIC,Bacillus subtilis,0.25 µg/mL
same,MIC,Escherichia coli,0.25 µg/mL
same,MIC,Staphylococcus aureus,0.25 µg/mL
same,MIC,Pseudomonas aeruginosa,0.25 µg/mL
same,MIC,Candida albicans,0.25 µg/mL
Nn1c(SCC(=O)c2c([O-])on[n+]2-c2ccccc2)nnc(Cc2ccc([N+](=O)[O-])cc2)c1=O,MIC,Bacillus subtilis,0.25 µg/mL
same,MIC,Escherichia coli,0.25 µg/mL
same,MIC,Staphylococcus aureus,0.5 µg/mL
same,MIC,Pseudomonas aeruginosa,0.25 µg/mL
same,MIC,Candida albicans,0.25 µg/mL
Nn1c(SCC(=O)c2c([O-])on[n+]2-c2ccccc2)nnc(Cc2ccc(Cl)cc2)c1=O,MIC,Bacillus subtilis,0.25 µg/mL
same,MIC,Escherichia coli,0.25 µg/mL
same,MIC,Staphylococcus aureus,0.25 µg/mL
same,MIC,Pseudomonas aeruginosa,0.25 µg/mL
same,MIC,Candida albicans,0.25 µg/mL
Nn1c(SCC(=O)c2c([O-])on[n+]2-c2ccccc2)nnc(Cc2ccc(Br)cc2)c1=O,MIC,Bacillus subtilis,0.25 µg/mL
same,MIC,Escherichia coli,0.25 µg/mL
same,MIC,Staphylococcus aureus,0.25 µg/mL
same,MIC,Pseudomonas aeruginosa,0.25 µg/mL
same,MIC,Candida albicans,0.25 µg/mL
Cc1ccc(-[n+]2noc([O-])c2C(=O)CSc2nnc(Cc3ccc(Cl)cc3)c(=O)n2N)cc1,MIC,Bacillus subtilis,0.25 µg/mL
same,MIC,Escherichia coli,0.25 µg/mL
same,MIC,Staphylococcus aureus,0.25 µg/mL
same,MIC,Pseudomonas aeruginosa,0.25 µg/mL
same,MIC,Candida albicans,0.25 µg/mL
COc1ccc(-[n+]2noc([O-])c2C(=O)CSc2nnc(Cc3ccccc3)c(=O)n2N)cc1,MIC,Bacillus subtilis,0.25 µg/mL
same,MIC,Escherichia coli,0.25 µg/mL
same,MIC,Staphylococcus aureus,0.25 µg/mL
same,MIC,Pseudomonas aeruginosa,0.25 µg/mL
same,MIC,Candida albicans,0.25 µg/mL
Cc1ccc(-[n+]2noc([O-])c2C(=O)CSc2nnc(Cc3ccccc3)c(=O)n2N)cc1,MIC,Bacillus subtilis,0.25 µg/mL
same,MIC,Escherichia coli,0.25 µg/mL
same,MIC,Staphylococcus aureus,0.25 µg/mL
same,MIC,Pseudomonas aeruginosa,0.25 µg/mL
same,MIC,Candida albicans,0.25 µg/mL
Nn1c(SCC(=O)c2c([O-])on[n+]2-c2ccccc2)nnc(Cc2ccccc2)c1=O,MIC,Bacillus subtilis,0.25 µg/mL
same,MIC,Escherichia coli,0.25 µg/mL
same,MIC,Staphylococcus aureus,0.25 µg/mL
same,MIC,Pseudomonas aeruginosa,0.25 µg/mL
same,MIC,Candida albicans,0.25 µg/mL
